Our source for the IC50 values is patent US9902728B2, “Pyrrolo and pyrazolopyrimidines as ubiquitin-specific protease 7 inhibitors” (Forma Therapeutics, Inc., priority 2014, dated 2018).

Structures are written as SMILES.

In one assay the target is T1, USP7 (Homo sapiens, UniProt Q93009).
T1 construct: USP7, construct USP7 (208-1102) 6*His, Viva Biotech; 6xHis (C); purchased Viva Biotech
T1 sequence (Q93009 208-1102): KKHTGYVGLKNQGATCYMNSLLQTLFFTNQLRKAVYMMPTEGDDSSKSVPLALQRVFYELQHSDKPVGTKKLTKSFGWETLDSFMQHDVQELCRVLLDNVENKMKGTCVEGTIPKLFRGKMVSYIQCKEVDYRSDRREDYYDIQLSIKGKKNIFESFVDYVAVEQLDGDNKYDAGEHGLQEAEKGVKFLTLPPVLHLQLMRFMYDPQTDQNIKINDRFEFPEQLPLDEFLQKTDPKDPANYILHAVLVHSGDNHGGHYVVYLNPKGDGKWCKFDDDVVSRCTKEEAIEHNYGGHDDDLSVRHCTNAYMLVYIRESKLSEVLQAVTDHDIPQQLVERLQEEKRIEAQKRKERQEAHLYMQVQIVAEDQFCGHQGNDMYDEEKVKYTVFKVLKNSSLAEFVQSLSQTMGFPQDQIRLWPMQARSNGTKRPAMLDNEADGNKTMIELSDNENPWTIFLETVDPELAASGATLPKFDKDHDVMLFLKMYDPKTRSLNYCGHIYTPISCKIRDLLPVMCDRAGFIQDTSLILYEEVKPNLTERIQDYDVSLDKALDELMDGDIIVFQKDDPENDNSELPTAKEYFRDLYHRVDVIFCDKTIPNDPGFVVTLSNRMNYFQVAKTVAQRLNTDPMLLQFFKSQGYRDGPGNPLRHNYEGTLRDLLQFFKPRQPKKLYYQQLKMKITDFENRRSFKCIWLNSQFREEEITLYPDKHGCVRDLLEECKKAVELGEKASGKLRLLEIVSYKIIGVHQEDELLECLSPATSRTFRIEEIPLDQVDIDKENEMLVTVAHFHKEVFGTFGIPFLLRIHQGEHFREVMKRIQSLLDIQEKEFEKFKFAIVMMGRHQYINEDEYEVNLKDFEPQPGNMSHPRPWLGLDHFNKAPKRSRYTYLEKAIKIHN
Description: USP7 Assay A (Ubitquin-Rhodamine 110 Assay). The note with it: USP7 activity in USP7 assay A and B (table does not say which assay per compound); read-out: USP7_IC50. Type of assay: biochemical. The essentials: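 Ub-Rh110 cleavage in 20 mM Tris-HCl pH 8.0 with 1 mM GSH, 0.03% BGG, 0.01% Triton X-100; compound preincubated with enzyme 30 min before substrate.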
`C=CC(=O)N1CC[C@]1(C)C(=O)N1CCC(O)(Cn2cnc3c(cnn3-c3ccc(-c4ccccc4)cc3)c2=O)CC1` [Compound I-660]: the IC50 fell in the range of 200 to 1000 nM.

As for `Cc1ccc(C(=O)N2CCC(O)(Cn3cnc4c(cnn4-c4ccc(-n5cc(OCCO)cn5)cc4)c3=O)CC2)cc1` [Compound I-672], the IC50 fell in the range of 200 to 1000 nM. The same measure, in the same setting: the same measure for `Cc1ncn(-c2ccc(-n3ncc4c(=O)n(CC5(O)CCN(C(=O)c6ccc(F)cc6)CC5)cnc43)cc2)n1` [Compound I-673]: 1000 to 10000 nM; for `CN1CC[C@@H](Oc2ccc(-c3ccc(-n4ncc5c(=O)n(CC6(O)CCN(C(=O)C7CC7)CC6)cnc54)cc3)cc2)C1` [Compound I-679]: below 200 nM. Same read-out and setting: the same measure for `CN1CC[C@H](Oc2ccc(-c3ccc(-n4ncc5c(=O)n(CC6(O)CCN(C(=O)C7CC7)CC6)cnc54)cc3)cc2)C1` [Compound I-680]: 200 to 1000 nM. Still for that read-out and setting: the same measure for `CN[C@H]1CCN(c2ccc(-c3ccc(-n4ncc5c(=O)n(CC6(O)CCN(C(=O)C7CC7)CC6)cnc54)cc3)cn2)C1` [Compound I-684]: below 200 nM; for `CNC1CCN(c2ccc(-c3ccc(-n4ncc5c(=O)n(CC6(O)CCN(C(=O)C7CC7)CC6)cnc54)cc3)cn2)C1` (stereo not shown) [Compound I-685]: below 200 nM.

For the compound `O=C(C1CC1)N1CCC(O)(Cn2cnc3c(cnn3-c3ccc(-c4ccc(N5CC[C@H](O)C5)nc4)cc3)c2=O)CC1` [Compound I-686], the IC50 was in the range of 200 to 1000 nM. As to `O=C(C1CC1)N1CCC(O)(Cn2cnc3c(cnn3-c3ccc(-c4ccc(N5CC[C@@H](O)C5)nc4)cc3)c2=O)CC1` [Compound I-687], the IC50 lay in the range of 200 to 1000 nM. In the case of `CN[C@H]1CCN(c2ccc(-c3ccc(-n4ncc5c(=O)n(CC6(O)CCN(C(=O)C7CC7)CC6)cnc54)cc3)cc2)C1` [Compound I-689], the IC50 was below 200 nM.

`CN[C@@H]1CCN(c2ccc(-c3ccc(-n4ncc5c(=O)n(CC6(O)CCN(C(=O)C7CC7)CC6)cnc54)cc3)cc2)C1` [Compound I-690]: the IC50 was in the range of 200 to 1000 nM.

For the compound `CN1CC(Oc2ccc(-n3ncc4c(=O)n(CC5(O)CCN(C(=O)c6ccc(F)cc6)CC5)cnc43)cc2)C1` [Compound I-692], the IC50 was below 200 nM. For the compound `O=C(c1ccc(F)cc1)N1CCC(O)(Cn2cnc3c(cnn3-c3ccc(OCC4(F)CCOCC4)cc3)c2=O)CC1` [Compound I-693], the IC50 is 200 to 1000 nM. `O=C(c1ccc(F)cc1)N1CCC(O)(Cn2cnc3c(cnn3-c3ccc(OCC4(F)CCC4)cc3)c2=O)CC1` [Compound I-696]: the IC50 was in the range of 200 to 1000 nM. Regarding `CN1CCN(C(=O)N2CCC(O)(Cn3cnc4c(cnn4-c4ccc(OC5CCC(F)(F)CC5)cc4)c3=O)CC2)CC1` [Compound I-697], the IC50 was above 10000 nM. Regarding `O=C(c1cnc(C2CC2)o1)N1CCC(O)(Cn2cnc3c(cnn3-c3ccc(N4CCC(F)(F)CC4)cc3)c2=O)CC1` [Compound I-699], the IC50 lay in the range of 200 to 1000 nM. Consider `Cc1nnc(-c2ccc(-n3ncc4c(=O)n(CC5(O)CCN(C(=O)c6ccc(F)cc6)CC5)cnc43)cc2)o1` [Compound I-712], for which the IC50 was in the range of 1000 to 10000 nM.

As for `O=C(c1ccc(F)cc1)N1CCC(O)(C(CO)n2cnc3c(cnn3-c3ccc(F)cc3)c2=O)CC1` (stereo not shown) [Compound I-720], the IC50 was in the range of 1000 to 10000 nM. Turning to `O=C(C1CCc2cn[nH]c2C1)N1CCC(O)(Cn2cnc3c(cnn3-c3ccc(F)cc3)c2=O)CC1` (stereo not shown) [Compound I-724], the IC50 lay within 200 to 1000 nM. Regarding `Cn1ncc2c1CC(C(=O)N1CCC(O)(Cn3cnc4c(cnn4-c4ccc(F)cc4)c3=O)CC1)CC2` (stereo not shown) [Compound I-725], the IC50 was in the range of 1000 to 10000 nM. As to `O=C(c1cnn(C2CC2)c1)N1CCC(O)(Cn2cnc3c(cnn3-c3ccc(F)cc3)c2=O)CC1` [Compound I-726], the IC50 lay in the range of 200 to 1000 nM. For the compound `Cn1cc(C2CCC(C(=O)N3CCC(O)(Cn4cnc5c(cnn5-c5ccc(F)cc5)c4=O)CC3)CC2)cn1` (stereo not shown) [Compound I-727], the IC50 was 200 to 1000 nM. As to `Cn1cc(C2CCC(C(=O)N3CCC(O)(Cn4cnc5c(cnn5-c5ccc(F)cc5)c4=O)CC3)CC2)cn1` (stereo not shown) [Compound I-728], the IC50 is 200 to 1000 nM.

For `O=C(C[C@H](C(F)F)n1ccc(Cl)n1)N1CCC(O)(Cn2cnc3c(cnn3-c3ccc(F)cc3)c2=O)CC1` [Compound I-731], the IC50 was below 200 nM.

Turning to `O=C(C[C@@H](C(F)F)n1ccc(Cl)n1)N1CCC(O)(Cn2cnc3c(cnn3-c3ccc(F)cc3)c2=O)CC1` [Compound I-732], the IC50 lay in the range of 1000 to 10000 nM.

Regarding `O=C(C[C@H](C(F)F)n1cc(Cl)cn1)N1CCC(O)(Cn2cnc3c(cnn3-c3ccc(F)cc3)c2=O)CC1` [Compound I-733], the IC50 is 200 to 1000 nM. Regarding `O=C(C[C@@H](C(F)F)n1cc(Cl)cn1)N1CCC(O)(Cn2cnc3c(cnn3-c3ccc(F)cc3)c2=O)CC1` [Compound I-734], the IC50 is above 10000 nM. Take `Cc1cnn([C@H](CC(=O)N2CCC(O)(Cn3cnc4c(cnn4-c4ccc(F)cc4)c3=O)CC2)C(F)F)c1` [Compound I-735]: the IC50 was 1000 to 10000 nM. Still for that read-out and setting: for `O=C(C1CCC(Oc2ccc(F)cn2)CC1)N1CCC(O)(Cn2cnc3c(cnn3-c3ccc(F)cc3)c2=O)CC1` (stereo not shown) [Compound I-737] the value was below 200 nM; for `O=C(C1CCC(Oc2ccc(F)cn2)CC1)N1CCC(O)(Cn2cnc3c(cnn3-c3ccc(F)cc3)c2=O)CC1` (stereo not shown) [Compound I-738], 200 to 1000 nM; for `O=C(C1CCC(Oc2cccc(F)n2)CC1)N1CCC(O)(Cn2cnc3c(cnn3-c3ccc(F)cc3)c2=O)CC1` (stereo not shown) [Compound I-739], below 200 nM. Same read-out and setting: for `O=C(C1CCC(Oc2cccc(F)n2)CC1)N1CCC(O)(Cn2cnc3c(cnn3-c3ccc(F)cc3)c2=O)CC1` (stereo not shown) [Compound I-740] the value was 200 to 1000 nM; for `O=C(C1CCC(Oc2cccc(F)n2)CC1)N1CCC(O)(Cn2cnc3c(cnn3-c3ccccc3)c2=O)CC1` (stereo not shown) [Compound I-741], below 200 nM.

`O=C(C1CCC(Oc2cccc(F)n2)CC1)N1CCC(O)(Cn2cnc3c(cnn3-c3ccccc3)c2=O)CC1` (stereo not shown) [Compound I-742]: the IC50 fell in the range of 200 to 1000 nM. In the case of `O=C(C1CCC(Oc2ccc(F)cn2)CC1)N1CCC(O)(Cn2cnc3c(cnn3-c3ccccc3)c2=O)CC1` (stereo not shown) [Compound I-743], the IC50 was in the range of 1000 to 10000 nM.

On to `O=C(C1CCC(Oc2ccc(F)cn2)CC1)N1CCC(O)(Cn2cnc3c(cnn3-c3ccccc3)c2=O)CC1` (stereo not shown) [Compound I-744], for which the IC50 was in the range of 200 to 1000 nM.

Staying with this assay, now noted: USP7 assay A and B (table does not say which assay per compound); read-out: USP7_IC50.
In the case of `C[C@H](CC(=O)N1CCC(O)(Cn2cnc3c(cnn3-c3ccc(-c4ccc(F)cc4)cc3)c2=O)CC1)n1cccn1` [Compound I-653], the IC50 lay within 200 to 1000 nM. As to `C[C@@H](CC(=O)N1CCC(O)(Cn2cnc3c(cnn3-c3ccc(-c4ccc(F)cc4)cc3)c2=O)CC1)n1cccn1` [Compound I-654], the IC50 is above 10000 nM.

`CNC(=O)N1CCC(O)(Cn2cnc3c(cnn3-c3ccc(-c4ccc(F)cc4)cc3)c2=O)CC1` [Compound I-655]: the IC50 is 1000 to 10000 nM. Regarding `C=CC(=O)N1CCC1C(=O)N1CCC(O)(Cn2cnc3c(cnn3-c3ccc(-c4ccccc4)cc3)c2=O)CC1` (stereo not shown) [Compound I-657], the IC50 fell in the range of 200 to 1000 nM. Consider `C#CC(=O)NC1CC(C(=O)N2CCC(O)(Cn3cnc4c(cnn4-c4ccc(-c5ccccc5)cc4)c3=O)CC2)C1` (stereo not shown) [Compound I-658], for which the IC50 was 1000 to 10000 nM. As to `O=C(NC1CNCC1F)N1CCC(O)(Cn2cnc3c(cnn3-c3ccc(-c4ccccc4)cc3)c2=O)CC1` (stereo not shown) [Compound I-662], the IC50 is above 10000 nM. Turning to `O=C(N[C@@H]1CNCC1F)N1CCC(O)(Cn2cnc3c(cnn3-c3ccc(-c4ccccc4)cc3)c2=O)CC1` (stereo partly shown) [Compound I-663], the IC50 was above 10000 nM. Consider `O=C(N[C@H]1CNCC1F)N1CCC(O)(Cn2cnc3c(cnn3-c3ccc(-c4ccccc4)cc3)c2=O)CC1` (stereo partly shown) [Compound I-664], for which the IC50 lay in the range of 1000 to 10000 nM.

Take `O=C(c1ccccc1)N1CCC(O)(Cn2cnc3c(cnn3-c3ccc(-c4ccccc4)c(CO)c3)c2=O)CC1` [Compound I-665]: the IC50 fell in the range of 1000 to 10000 nM.

Turning to `O=C(C1CC1)N1CCC(O)(Cn2cnc3c(cnn3-c3ccc(-c4ccc(OC5CCNC5)cc4)cc3)c2=O)CC1` (stereo not shown) [Compound I-675], the IC50 fell in the range of 200 to 1000 nM.

For the compound `CN1CCC(Oc2ccc(-c3ccc(-n4ncc5c(=O)n(CC6(O)CCN(C(=O)C7CC7)CC6)cnc54)cc3)cc2)C1` (stereo not shown) [Compound I-678], the IC50 lay within 200 to 1000 nM. As to `CNC1CCN(c2ccc(-c3ccc(-n4ncc5c(=O)n(CC6(O)CCN(C(=O)C7CC7)CC6)cnc54)cc3)cc2)C1` (stereo not shown) [Compound I-688], the IC50 was 200 to 1000 nM. In the case of `NC1(c2cccc(-c3ccc(-n4ncc5c(=O)n(CC6(O)CCN(C(=O)C7CC7)CC6)cnc54)cc3)c2)COC1` [Compound I-691], the IC50 was 1000 to 10000 nM.

Regarding `O=C(C1CC1)N1CCC(O)(Cn2cnc3c(cnn3-c3ccc(-c4ccccc4)c(N4CCNCC4)c3)c2=O)CC1` [Compound I-698], the IC50 was 200 to 1000 nM. `CN1CCN(c2ccc(-n3ncc4c(=O)n(CC5(O)CCN(C(=O)C6CC6)CC5)cnc43)cc2Cl)CC1` [Compound I-701]: the IC50 lay within 1000 to 10000 nM. Consider `Cn1cc(-n2ncc3c(=O)n(CC4(O)CCN(C(=O)c5ccc(F)cc5)CC4)cnc32)cn1` [Compound I-703], for which the IC50 lay in the range of 1000 to 10000 nM. Still for that read-out and setting: the same measure for `O=C(c1ccc(F)cc1)N1CCC(O)(Cn2cnc3c(cnn3-c3cnn(-c4ccccc4)c3)c2=O)CC1` [Compound I-704]: 1000 to 10000 nM.

As to `O=C(c1ccc(OC(F)F)cc1)N1CCC(O)(Cn2cnc3c(cnn3-c3cnn(C4CC4)c3)c2=O)CC1` [Compound I-705], the IC50 is 1000 to 10000 nM. Regarding `CN(C)C(=O)N1CCC(O)(Cn2cnc3c(cc(-c4ccccc4)n3-c3ccc(F)cc3)c2=O)CC1` [Compound I-706], the IC50 lay within 1000 to 10000 nM. For `CN(C)c1ccc(-n2ncc3c(=O)n(CC4(O)CCN(C(=O)c5ccc(F)cc5)CC4)cnc32)cc1` [Compound I-707], the IC50 was in the range of 200 to 1000 nM. Still for that read-out and setting: the same measure for `O=C(c1ccc(F)cc1)N1CCC(O)(Cn2cnc3c(cnn3-c3ccc(C4(O)CC4)cc3)c2=O)CC1` [Compound I-713]: 1000 to 10000 nM. In the case of `Cn1ccc(Oc2ccc(C(=O)N3CCC(O)(Cn4cnc5c(cnn5-c5ccc(F)cc5)c4=O)CC3)cc2)n1` [Compound I-719], the IC50 was in the range of 1000 to 10000 nM.
